According to patent US9643953B2, “Substituted benzylpyrazoles” (Bayer Intellectual Property GmbH, priority 2011, dated 2017):
Read-outs that look alike come from different tables or passages of the source.

Legend:
HeLa cell line = assay: Proliferation assay (HeLa cell line); conditions: Homo sapiens, HeLa, 96 h;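 note: crystal violet staining of cell number, absorbance read at 595 nm, compounds tested at 0.001–10 µM, zero-point plate taken as 0% and untreated cells as 100%, four-parameter fit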
Protocol: (§1) Cultivated tumor cells (cells were ordered from ATCC, except HeLa-MaTu and HeLa-MaTu-ADR, which were ordered from EPO-GmbH, Berlin) were plated at a density of 1000 to 5000 cells/well, depending on the growth rate of the respective cell line, in a 96-well multititer plate in 200 μL of their respective growth medium supplemented 10% fetal calf serum. After 24 hours, the cells of one plate (zero-point plate) were stained with crystal violet (see below), while the medium of the other plates was replaced by fresh culture medium (200 μl), to which the test substances were added in various concentrations (0 μM, as well as in the range of 0.001-10 μM; the final concentration of the solvent dimethyl sulfoxide was 0.5%). The cells were incubated for 4 days in the presence of test substances. Cell proliferation was determined by staining the cells with crystal violet: the cells were fixed by adding 20 μl/measuring point of an 11% glutaric aldehyde solution for 15 minutes at room temperature. After three washing cycles of the fixed cells with water, the plates were dried at room temperature. The cells were stained by adding 100 μl/measuring point of a 0.1% crystal violet solution (pH 3.0). After three washing cycles of the stained cells with water, the plates were dried at room temperature. The dye was dissolved by adding 100 μl/measuring point of a 10% acetic acid solution. Absorption was determined by photometry at a wavelength of 595 nm. The change of cell number, in percent, was calculated by normalization of the measured values to the absorption values of the zero-point plate (=0%) and the absorption of the untreated (0 μm) cells (=100%). The IC50 values were determined by means of a 4 parameter fit.

Caco2 cell line = assay: Proliferation assay (Caco2 cell line); conditions: Homo sapiens, Caco-2, 96 h, read-out: Biological Assay 2: Proliferation assay (Caco2 cell line) median IC50
Protocol: as §1

H460 cell line = assay: Proliferation assay (H460 cell line); conditions: Homo sapiens, NCI-H460, 96 h, read-out: Biological Assay 2: Proliferation assay (H460 cell line) median IC50
Protocol: as §1

HeLa-MaTu-ADR cell line = assay: Proliferation assay (HeLa-MaTu-ADR cell line); conditions: 96 h, read-out: Biological Assay 2: Proliferation assay (HeLa-MaTu-ADR cell line) median IC50
Protocol: as §1

DU145 cell line = assay: Proliferation assay (DU145 cell line); conditions: Homo sapiens, DU-145, 96 h, read-out: Biological Assay 2: Proliferation assay (DU145 cell line) median IC50
Protocol: as §1

[1] = biological target: T1, catalytic domain of human Bub1 (amino acids 704-1085) (Homo sapiens, UniProt O43683); assay: Bub1 kinase assay (TR-FRET); type: biochemical; conditions: ATP 10 μM, peptide substrate 1 μM, 60 min at 22° C.
T1 construct: catalytic domain of human Bub1 (amino acids 704-1085); His6 (N); made in house; host or cells: Hi5 insect cells
T1 sequence (O43683 704-1085): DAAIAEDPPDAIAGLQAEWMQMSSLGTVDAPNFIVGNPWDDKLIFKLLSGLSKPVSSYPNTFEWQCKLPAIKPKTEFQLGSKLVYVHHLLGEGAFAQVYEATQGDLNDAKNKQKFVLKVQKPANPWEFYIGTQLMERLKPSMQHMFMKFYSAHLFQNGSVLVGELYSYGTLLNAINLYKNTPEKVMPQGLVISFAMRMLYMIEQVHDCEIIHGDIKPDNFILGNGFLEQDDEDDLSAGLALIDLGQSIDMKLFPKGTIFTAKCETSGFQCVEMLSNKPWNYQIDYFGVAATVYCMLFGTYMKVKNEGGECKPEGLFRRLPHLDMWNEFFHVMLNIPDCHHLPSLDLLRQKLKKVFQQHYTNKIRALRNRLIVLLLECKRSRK
Protocol: To this end, 100-fold concentrated compound solutions (in DMSO) were previously prepared by serial dilution (1:3.4) of 2 mM stocks in a clear low volume 384-well source microtiter plate (Greiner Bio-One, Frickenhausen, Germany), from which 50 nl of compounds were transferred into a black low volume test microtiter plate from the same supplier. […] The resulting mixture (5 μl final volume) was incubated at 22° C. during 60 min., and the reaction was stopped by the addition of 5 μl of an aqueous EDTA-solution (50 mM EDTA, in 100 mM HEPES pH 7.5 and 0.2% (w/v) bovine serum albumin) which also contained the TR-FRET detection reagents (0.2 μM streptavidin-XL665 [Cisbio Bioassays, Codolet, France] and 1 nM anti-phosho-Serine antibody [Merck Millipore, cat. #35-001] and 0.4 nM LANCE EU-W1024 labeled anti-mouse IgG antibody [Perkin-Elmer, product no. AD0077, alternatively a Terbium-cryptate-labeled anti-mouse IgG antibody from Cisbio Bioassays can be used]). The stopped reaction mixture was further incubated 1 h at 22° C. in order to allow the formation of complexes between peptides and detection reagents. Subsequently, the amount of product was evaluated by measurement of the resonance energy transfer from the Eu-chelate-antibody complex recognizing the Phosphoserine residue to the streptavidin-XL665 bound to the biotin moiety of the peptide. […] IC50 values were calculated by fitting the normalized inhibition data to a 4-parameter logistic equation (Minimum, Maximum, IC50, Hill; Y=Max+(Min−Max)/(1+(X/IC50)Hill)).

B16F10 cell line = assay: Proliferation assay (B16F10 cell line); conditions: Mus musculus, B16-F10, 96 h, read-out: Biological Assay 2: Proliferation assay (B16F10 cell line) median IC50
Protocol: as §1

[2] = read-out: Biological Assay 2: Proliferation assay (HeLa cell line) median IC50
[3] = TR-FRET, read-out: Biological Assay 1: Bub1 kinase assay median IC50
[4] = Biological Assay 1: Bub1 kinase assay median IC50, TR-FRET

SMILES | IC50 (HeLa cell line; [2]) | IC50 (Caco2 cell line) | IC50 (H460 cell line) | IC50 (HeLa-MaTu-ADR cell line) | IC50 (DU145 cell line) | IC50 [1, 3] | IC50 (B16F10 cell line) | IC50 [1, 4] | IC50 (HeLa cell line; read-out: Biological Assay 2: Proliferation assay (HeLa cell line) median IC50, HeLa cells, 4 days incubation, crystal violet staining)
CCOc1cc(F)c(Cn2nc(-c3ncc(OC)c(Nc4ccncc4)n3)c(C)c2C2CC2)c(F)c1 [Example 2-1-12, 2-[5-cyclopropyl-1-(4-ethoxy-2,6-difluorobenzyl)-4-methyl-1H-pyrazol-3-yl]-5-methoxy-N-(pyridin-4-yl)pyrimidin-4-amine] | 4380 nM | 2130 nM | 2620 nM | 3080 nM | 3090 nM | 6.03 nM | 2240 nM |  | 
CCOc1cc(F)c(Cn2nc(-c3ncc(OCCN(C)C)c(Nc4ccncc4)n3)c(C)c2C2CC2)c(F)c1 [Example 2-3-1, 2-[5-cyclopropyl-1-(4-ethoxy-2,6-difluorobenzyl)-4-methyl-1H-pyrazol-3-yl]-5-[2-(dimethylamino)ethoxy]-N-(pyridin-4-yl)pyrimidin-4-amine] | 3450 nM | 1940 nM | 1460 nM | 1260 nM | 3200 nM |  | 422 nM | 7.45 nM | 
CCOc1cc(F)c(Cn2nc(-c3ncc(OCCCS(C)(=O)=O)c(Nc4ccncc4)n3)c(C)c2C2CC2)c(F)c1 [Example 2-3-10, 2-[5-cyclopropyl-1-(4-ethoxy-2,6-difluorobenzyl)-4-methyl-1H-pyrazol-3-yl]-5-[3-(methylsulfonyl)propoxy]-N-(pyridin-4-yl)pyrimidin-4-amine] | 1130 nM | 1410 nM | 1550 nM | 755 nM | 1610 nM |  | 1180 nM | 9.49 nM | 
COc1cnc(-c2cc(OC)n(Cc3ccccc3F)n2)nc1Nc1ccncc1C(N)=O [Example 2-4-1, 4-({2-[1-(2-fluorobenzyl)-5-methoxy-1H-pyrazol-3-yl]-5-methoxypyrimidin-4-yl}amino)pyridine-3-carboxamide] | > 10000 nM |  |  |  |  | 41.5 nM |  |  | 
CCOc1cc(F)c(Cn2nc(-c3ncc(OC)c(Nc4ccncc4C(N)=O)n3)c(C)c2C2CC2)c(F)c1 [Example 2-4-2, 4-({2-[5-cyclopropyl-1-(4-ethoxy-2,6-difluorobenzyl)-4-methyl-1H-pyrazol-3-yl]-5-methoxypyrimidin-4-yl}amino)nicotinamide] | 3230 nM |  |  |  |  |  |  | 10.5 nM | 
CCOc1cc(F)c(Cn2nc(-c3nccc(Nc4ccncc4C(N)=O)n3)c(C)c2C2CC2)c(F)c1 [Example 2-4-3, 4-({2-[5-cyclopropyl-1-(4-ethoxy-2,6-difluorobenzyl)-4-methyl-1H-pyrazol-3-yl]pyrimidin-4-yl}amino)nicotinamide] | 4460 nM |  |  |  |  |  |  | 9.32 nM | 
CCOc1cc(F)c(Cn2nc(-c3nccc(Nc4ccncc4C#N)n3)c(C)c2C2CC2)c(F)c1 [Example 2-6-6, 4-({2-[5-cyclopropyl-1-(4-ethoxy-2,6-difluorobenzyl)-4-methyl-1H-pyrazol-3-yl]pyrimidin-4-yl}amino)nicotinonitrile] | > 10000 nM |  |  |  |  |  |  | 8.77 nM | 
CCOc1cc(F)c(Cn2nc(-c3ncc(OCCC[S+](C)[O-])c(Nc4ccncc4)n3)c(C)c2C2CC2)c(F)c1 (centres unmarked) [Example 2-8-4, 2-[5-cyclopropyl-1-(4-ethoxy-2,6-difluorobenzyl)-4-methyl-1H-pyrazol-3-yl]-5-[3-(methylsulfinyl)propoxy]-N-(pyridin-4-yl)pyrimidin-4-amine] |  |  |  |  |  | 7.9 nM |  |  | 4310 nM
CCOc1cc(F)c(Cn2nc(-c3ncc(OCCS(C)(=O)=O)c(Nc4ccncc4)n3)c(C)c2C2CC2)c(F)c1 [Example 2-9-1, 2-[5-cyclopropyl-1-(4-ethoxy-2,6-difluorobenzyl)-4-methyl-1H-pyrazol-3-yl]-5-[2-(methylsulfonyl)ethoxy]-N-(pyridin-4-yl)pyrimidin-4-amine] | 5170 nM |  |  |  |  |  |  | 7.87 nM | 
COc1cnc(-c2nn(Cc3c(F)c(F)c(OCC(F)(F)F)c(F)c3F)c(C3CC3)c2C)nc1Nc1ccncc1 [Example 2-10-2, 2-{5-cyclopropyl-4-methyl-1-[2,3,5,6-tetrafluoro-4-(2,2,2-trifluoroethoxy)benzyl]-1H-pyrazol-3-yl}-5-methoxy-N-(pyridin-4-yl)pyrimidin-4-amine] | 5280 nM |  |  |  |  | 61.3 nM |  |  | 
